Tests used:
Settings in all cases: 72 h
[1] = system: MV4-11; experiment: cell viability (% survival relative to DMSO control, bortezomib = 0%); higher = less cytotoxic
How it was run: (§1)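 After 72 h at 37 °C with 5% CO2, cell viability in 384-well plates was measured by CellTiter-Glo luminescence. The plates held compounds pre-printed at 1, 10, 100, 1000 or 10000 nM in duplicate, and cells from 10 AML and 5 CML lines seeded at densities titrated to linear growth. Percent survival is the duplicate mean, normalised to vehicle as 100% and a 10 µM positive control as 0%.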

[2] = system: MOLM-13; experiment: as above
How it was run: as §1

[3] = system: NOMO-1; experiment: as above
How it was run: as §1

[4] = system: SHI-1; experiment: as above
How it was run: as §1

[5] = system: BV-173; experiment: as above
How it was run: as §1

[6] = system: KCL-22; experiment: as above
How it was run: as §1

[7] = system: HL-60; experiment: as above
How it was run: as §1

[8] = system: Mono-Mac-6; experiment: as above
How it was run: as §1

[9] = system: K-562; experiment: as above
How it was run: as §1

[10] = system: KG-1; experiment: as above
How it was run: as §1

[11] = system: KU-812; experiment: as above
How it was run: as §1

[12] = system: THP-1; experiment: as above
How it was run: as §1

[13] = system: ML-2; experiment: as above
How it was run: as §1

[14] = system: HEL; experiment: as above
How it was run: as §1

[15] = system: LAMA-84; experiment: as above
How it was run: as §1

[16] = system: MV4-11
How it was run: (§2)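 For the IC50, dose–response curves were fitted with a log-logistic model. The data came from fifteen myeloid leukaemia cell lines grown in RPMI 1640 at densities in the linear growth range and incubated in 384-well plates for 72 h at 37 °C under 5% CO2. Doses were five tenfold steps from 1 to 10,000 nM in duplicate, and luminescent ATP viability was normalised to vehicle and to a positive control at 10 µM before four-parameter fitting.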

[17] = system: MOLM-13
How it was run: as §2

[18] = system: NOMO-1
How it was run: as §2

[19] = system: SHI-1
How it was run: as §2

[20] = system: BV-173
How it was run: as §2

[21] = system: KCL-22
How it was run: as §2

[22] = system: HL-60
How it was run: as §2

[23] = system: Mono-Mac-6
How it was run: as §2

[24] = system: K-562
How it was run: as §2

[25] = system: KG-1
How it was run: as §2

[26] = system: KU-812
How it was run: as §2

[27] = system: THP-1
How it was run: as §2

[28] = system: ML-2
How it was run: as §2

[29] = system: HEL
How it was run: as §2

[30] = system: LAMA-84
How it was run: as §2

N#C/C(=C\c1ccc(O)cc1)C(=O)O [alpha-cyano-4-hydroxycinnamic acid]
cell viability [%]
Settings | 1 nM | 10 nM | 100 nM | 1000 nM | 10000 nM
[1] | 100 | 95.3 | 95.7 | 100 | 101
[2] | 97.7 | 99.7 | 104 | 99.1 | 85.2
[3] | 99.5 | 96.2 | 106 | 104 | 97.3
[4] | 99.9 | 97 | 95.1 | 97.3 | 86.6
[5] | 96.5 | 103 | 84.2 | 80.1 | 113
[6] | 98.3 | 97.6 | 103 | 94 | 92
[7] | 79.6 | 78.6 | 113 | 99.5 | 83.1
[8] | 98.2 | 101 | 103 | 103 | 104
[9] | 101 | 72.2 | 95.4 | 103 | 91
[10] | 101 | 96.7 | 103 | 99.2 | 103
[11] | 97.9 | 114 | 89.3 | 87.4 | 105
[12] | 95.5 | 98.3 | 98.3 | 87.5 | 93.2
[13] | 92.4 | 101 | 96.2 | 95.8 | 94.5
[14] | 99.3 | 114 | 118 | 113 | 116
[15] | 96.5 | 107 | 96.7 | 101 | 101

Settings | IC50 (cell viability) [µM]
[16] | > 10
[17] | > 10
[18] | > 10
[19] | > 10
[20] | > 10
[21] | > 10
[22] | > 10
[23] | > 10
[24] | > 10
[25] | > 10
[26] | > 10
[27] | > 10
[28] | > 10
[29] | > 10
[30] | > 10

COc1ccc2c(NC(=O)Nc3cccc(C(F)(F)F)n3)ccnc2c1
cell viability [%]
Settings | 1 nM | 10 nM | 100 nM | 1000 nM | 10000 nM
[1] | 102 | 103 | 101 | 85.7 | 77.2
[2] | 105 | 115 | 113 | 108 | 44.5
[3] | 97.4 | 98.2 | 113 | 94.5 | 113
[4] | 93.6 | 109 | 104 | 110 | 85.4
[5] | 104 | 93.6 | 111 | 102 | 87.4
[6] | 101 | 102 | 110 | 94.9 | 114
[7] | 86.5 | 129 | 116 | 116 | 98.3
[8] | 108 | 92.3 | 95.7 | 94.9 | 97.1
[9] | 104 | 100 | 95.3 | 93.7 | 103
[10] | 90.7 | 85 | 92 | 93.9 | 120
[11] | 116 | 102 | 108 | 109 | 112
[12] | 95.5 | 101 | 105 | 95.2 | 107
[13] | 101 | 97.6 | 109 | 122 | 127
[14] | 116 | 99.2 | 105 | 106 | 108
[15] | 102 | 100 | 105 | 100 | 100

Settings | IC50 (cell viability) [µM]
[16] | > 10
[17] | 9.04
[18] | > 10
[19] | > 10
[20] | > 10
[21] | > 10
[22] | > 10
[23] | > 10
[24] | > 10
[25] | > 10
[26] | > 10
[27] | > 10
[28] | > 10
[29] | > 10
[30] | > 10
